ChEMBL document CHEMBL4610119, “Lipophilic Triphosphate Prodrugs of Various Nucleoside Analogues” (J Med Chem, 2020)

Assays:
[1] = test system: Human immunodeficiency virus 1; experiment: microbe, parasite or virus in culture; format: functional, organism-based; details: Human immunodeficiency virus 1, 3B, CCRF-CEM
Description: Antiviral activity against HIV1 3B infected in human CEM/0 cells assessed as inhibition of viral-induced giant cell formation incubated for 4 to 5 days by microscopy

[2] = Cytotoxicity in human CEM/0 cells assessed as reduction in cell viability incubated for 4 to 5 days
pig liver esterase = experiment: Stability in pH 7.3 PBS assessed as pig liver esterase mediated hydrolysis by measuring half life by HPLC analysis; format: ADME, Sus scrofa
[3] = Stability in aqueous 25 mM PBS at pH 7.3 assessed as hydrolysis half life by HPLC analysis; format: physicochemical
[4] = Stability in human CEM/0 cell extracts assessed as hydrolysis half life by HPLC analysis; format: ADME, CCRF-CEM

SMILES	EC50 [1] [µM]	CC50 ([2]; CEM/0 cells) [µM]	half-life (pig liver esterase) [h]	half-life [3] [h]	half-life [4] [h]	CC50 ([2]; ccrf-cem) [µM]
Cc1cn([C@@H]2C[C@H](CO)[C@@H](O)C2)c(=O)[nH]c1=O	36	> 250	–	–	–	–
CCCCCCCCCCCCCCCCOC(=O)Oc1ccc(COP(=O)(OCc2ccc(OC(=O)CCCC)cc2)OP(=O)(O)OP(=O)(O)OC[C@H]2O[C@@H](n3cc(/C=C/Br)c(=O)[nH]c3=O)C[C@@H]2O)cc1.N.N (some centres not stated)	1.49	43	7	62	1.31	–
CCCCCCCCCCCCCCCCOC(=O)Oc1ccc(COP(=O)(OCc2ccc(OC(=O)CC)cc2)OP(=O)(O)OP(=O)(O)OC[C@H]2C[C@@H](n3cc(C)c(=O)[nH]c3=O)C[C@@H]2O)cc1.N.N (some centres not stated)	0.52	36	–	74	–	–
CCCCCCCCCCCCCCCCOC(=O)Oc1ccc(COP(=O)(OCc2ccc(OC(=O)CC)cc2)OP(=O)(O)OP(=O)(O)OC[C@@H]2C=C[C@H](n3cc(C)c(=O)[nH]c3=O)O2)cc1 (some centres not stated)	0.027	–	–	–	–	–
CCCCCCCCCCCCCCCCOC(=O)Oc1ccc(COP(=O)(OCc2ccc(OC(=O)CC)cc2)OP(=O)(O)OP(=O)(O)OC[C@H]2O[C@@H](n3cc(C)c(=O)[nH]c3=O)C[C@@H]2O)cc1.N.N (some centres not stated)	10.8	14	–	76	–	–
CCCCCCCCCCCCCCCCOC(=O)Oc1ccc(COP(=O)(OCc2ccc(OC(=O)CCCC)cc2)OP(=O)(O)OP(=O)(O)OC[C@H]2O[C@@H](n3cc(Cl)c(=O)[nH]c3=O)C[C@@H]2F)cc1.N.N (some centres not stated)	2.59	42	–	66	–	–
CCCCCCCCCCCCCCCCOC(=O)Oc1ccc(COP(=O)(OCc2ccc(OC(=O)CC)cc2)OP(=O)(O)OP(=O)(O)OC[C@@H]2O[C@H](n3cc(F)c(N)nc3=O)CS2)cc1.N.N (some centres not stated)	0.026	35	2.6	45	1.49	–
CCCCCCCCCCCCCCCCOC(=O)Oc1ccc(COP(=O)(OCc2ccc(OC(=O)CCCC)cc2)OP(=O)(O)OP(=O)(O)OC[C@H]2O[C@@H](n3cc(C)c(=O)[nH]c3=O)C[C@@H]2N=[N+]=[N-])cc1.N.N (some centres not stated)	0.0037	42	4	84	5	–
CCCCCCCCCCCCCCCCOC(=O)Oc1ccc(COP(=O)(OCc2ccc(OC(=O)CC)cc2)OP(=O)(O)OP(=O)(O)OC[C@H]2O[C@@H](n3cc(Cl)c(=O)[nH]c3=O)C[C@H]2N=[N+]=[N-])cc1.N.N (some centres not stated)	> 45	45	3	67	2.52	–
CCCCCCCCCCCCCCCCOC(=O)Oc1ccc(COP(=O)(OCc2ccc(OC(=O)CCCC)cc2)OP(=O)(O)OP(=O)(O)OC[C@@H]2O[C@H](n3cc(F)c(N)nc3=O)CS2)cc1.N.N (some centres not stated)	0.0043	40.5	2.26	36	2.78	–
CCCCCCCCCCCCCCCCOC(=O)Oc1ccc(COP(=O)(OCc2ccc(OC(=O)CC)cc2)OP(=O)(O)OP(=O)(O)OC[C@H]2O[C@@H](n3cc(/C=C/Br)c(=O)[nH]c3=O)C[C@@H]2O)cc1.N.N (some centres not stated)	11.2	43	–	56	–	–
CCCCCCCCCCCCCCCCOC(=O)Oc1ccc(COP(=O)(OCc2ccc(OC(=O)CC)cc2)OP(=O)(O)OP(=O)(O)OC[C@H]2O[C@@H](n3cc(C)c(=O)[nH]c3=O)C[C@@H]2N=[N+]=[N-])cc1.N.N (some centres not stated)	0.0094	48	–	83	–	–
CCCCCCCCCCCCCCCCOC(=O)Oc1ccc(COP(=O)(O)OP(=O)(O)OP(=O)(O)OC[C@H]2O[C@@H](n3cc(Cl)c(=O)[nH]c3=O)C[C@@H]2F)cc1	2.5	54	–	–	–	–
[N-]=[N+]=N[C@@H]1C[C@H](n2cc(Cl)c(=O)[nH]c2=O)O[C@@H]1CO	> 100	> 100	–	–	–	–
CCCCCCCCCCCCCCCCOC(=O)Oc1ccc(COP(=O)(OCc2ccc(OC(=O)CC)cc2)OP(=O)(O)OP(=O)(O)OC[C@H]2O[C@@H](n3cc(Cl)c(=O)[nH]c3=O)C[C@@H]2F)cc1.N.N (some centres not stated)	1.28	42	–	56	1.64	–
CCCCCCCCCCCCCCCCOC(=O)Oc1ccc(COP(=O)(OCc2ccc(OC(=O)CCCC)cc2)OP(=O)(O)OP(=O)(O)OC[C@@H]2CC[C@H](n3cnc4c(=O)[nH]cnc43)O2)cc1.N.N (some centres not stated)	0.93	43	3.5	41	1.57	–
CCCCCCCCCCCCCCCCOC(=O)Oc1ccc(COP(=O)(OCc2ccc(OC(=O)CCCC)cc2)OP(=O)(O)OP(=O)(O)OC[C@@H]2C=C[C@H](n3cc(C)c(=O)[nH]c3=O)O2)cc1 (some centres not stated)	0.032	–	–	–	–	–
CCCCCCCCCCCCCCCCOC(=O)Oc1ccc(COP(=O)(OCc2ccc(OC(=O)CC)cc2)OP(=O)(O)OP(=O)(O)OC[C@H]2O[C@@H](n3ccc(=O)[nH]c3=O)C[C@H]2N=[N+]=[N-])cc1.N.N (some centres not stated)	> 44	44	–	68	1.54	–
[N-]=[N+]=N[C@@H]1C[C@H](n2ccc(=O)[nH]c2=O)O[C@@H]1CO	> 250	> 250	–	–	–	–
O=c1[nH]c(=O)n([C@H]2C[C@H](O)[C@@H](CO)O2)cc1/C=C/Br [BRIVUDINE]	> 250	207	–	–	–	–
O=c1[nH]cnc2c1ncn2[C@H]1CC[C@@H](CO)O1 [DIDANOSINE]	16	> 250	–	–	–	–
Cc1cn([C@H]2C[C@H](O)[C@@H](CO)O2)c(=O)[nH]c1=O [DOXRIBTIMINE]	4.11	10.6	–	–	–	–
Nc1nc(=O)n([C@@H]2CS[C@H](CO)O2)cc1F [EMTRICITABINE]	0.01	–	–	–	–	> 100
O=c1[nH]c(=O)n([C@H]2C[C@H](F)[C@@H](CO)O2)cc1Cl [RALURIDINE]	> 250	188	–	–	–	–
Cc1cn([C@H]2C=C[C@@H](CO)O2)c(=O)[nH]c1=O [STAVUDINE]	0.43	–	–	–	–	> 50
Cc1cn([C@H]2C[C@H](N=[N+]=[N-])[C@@H](CO)O2)c(=O)[nH]c1=O [ZIDOVUDINE]	0.005	> 100	–	–	–	–
